Measured values reported in patent US7994173B2, “2-piperazin-1-yl-3H-imidazo[4,5-b]pyridine derivatives” (Janssen Pharmaceutica N.V., priority 2007, dated 2011).
Where a name gives a salt, the structure may show the parent alone.

Tests used:
[1] = test system: fundus of the stomach (gastric tone); assay: Gastric tone measured by an electronic barostat in conscious dogs; type: in vivo, dog (female beagle); details: for Maximum change in volume (Table C-2): I.D.
[2] = test system: fundus of the stomach (gastric tone); assay: as above; type: in vivo, dog (female beagle); details: for Maximum change in volume (mean): relaxation of the fundus, 1 hour after I.D. administration, 0.63 mg/kg
Method: Gastric tone cannot be measured by manometric methods. Therefore an electronic barostat was used. This allows the study of the physiological pattern and regulation of gastric tone in conscious dogs and the influence of test-compounds on this tone. The barostat consists of an air injection system which is connected by a double-lumen 14-French polyvinyl tube to an ultrathin flaccid polyethylene bag (maximal volume: ±700 ml). Variations in gastric tone were measured by recording changes in the volume of air within an intragastric bag, maintained at a constant pressure. The barostat maintains a constant pressure (preselected) within a flaccid air-filled bag introduced into the stomach, changing the volume of air within the bag by an electronic feedback system. Thus, the barostat measures gastric motor activity (contraction or relaxation) as changes in intragastric volume (decrease or increase resp.) at a constant intragastric pressure. The barostat consists of a strain gauge linked by an electronic relay to an air injection-aspiration system. Both the strain gauge and the injection system are connected by means of double-lumen polyvinyl tube to an ultrathin polyethylene bag. A dial in the barostat allows selection of the pressure level to be maintained within the intragastric bag. Female beagle dogs, weighing 7-17 kg, were trained to stand quietly in Pavlov frames. They were implanted with a gastric cannula under general anaesthesia and aseptic precautions. After a median laparotomy, an incision was made through the gastric wall in longitudinal direction between the greater and the lesser curve, 2 cm above the nerves of Latarjet. The cannula was secured to the gastric wall by means of a double purse string suture and brought out via a stub wound at the left quadrant of the hypochondrium. Dogs were allowed a recovery period of two weeks. At the beginning of the experiment, the cannula was opened in order to remove any gastric juice or food remnants. If necessary, the stomach was cleansed with 40 to 50 ml lukewarm water. The ultrathin bag of the barostat was positioned into the fundus of the stomach through the gastric cannula. In order to ensure easy unfolding of the intragastric bag during the experiment, a volume of 150-200 ml was injected into the bag by raising the pressure to maximally 14 mm Hg (about 1.87 kPa) very briefly. This procedure was repeated twice. After a stabilization period of 60 minutes at an intragastric pressure of 6 mmHg (about 0.81 kPa), the test compound was administered subcutaneously, or intraduodenally, at 2 mmHg (0.27 kPa). […] Table C-1 summarizes the mean maximal change in volume (in ml) on relaxation of the fundus, 1 hour after I.D. administration of the test compound (0.63 mg/kg).

melting point [°C]	SMILES	Maximum change in volume (mean) [2] [mL]	further results
182	Cn1c(N2CCN(Cc3cccnc3)CC2)nc2cccnc21 (as salt: HCl) (hydrate or solvate) [Co. No. 3]		
	Cn1c(C2CCCN(Cc3ccccc3)CC2)nc2cccnc21 (centres unmarked) [(72) of WO-01/46189, reference compound]		Maximum change in volume (Table C-2) ([1]; dose 0.16 mg/kg): 45 mL
128	CN(C)c1ccnc2c1nc(N1CCN(Cc3ccccc3)CC1)n2C [Co. No. 9]		
114	Cn1c(N2CCN(Cc3ccc4c(c3)OCO4)CC2)nc2cccnc21 [Co. No. 10]		
98	Cn1c(N2CCN(Cc3ccccc3)CC2)nc2cccnc21 [Co. No. 11]		
	CCCc1nc2c(cc1C)nc(N1CCN(Cc3ccccc3)CC1)n2C [compound 1]	237	
	Cn1c(N2CCN(Cc3cccnc3)CC2)nc2cccnc21 [compound 3]	154	
	CN(C)c1ccnc2c1nc(N1CCN(Cc3ccccc3)CC1)n2C [compound 9]	185	
	Cn1c(N2CCN(Cc3ccc4c(c3)OCO4)CC2)nc2cccnc21 [compound 10]	251	
	Cn1c(N2CCN(Cc3ccccc3)CC2)nc2cccnc21 [compound 11]	220	Maximum change in volume (Table C-2) ([1]; dose 0.0025 mg/kg): 83 mL; Maximum change in volume (Table C-2) ([1]; dose 0.01 mg/kg): 157 mL; Maximum change in volume (Table C-2) ([1]; dose 0.04 mg/kg): 146 mL; Maximum change in volume (Table C-2) ([1]; dose 0.16 mg/kg): 180 mL; Maximum change in volume (Table C-2) ([2]; I.D., dose 0.63 mg/kg): 220 mL
	Cn1c(N2CCNCC2)nc2cccnc21 [compound 14]		Maximum change in volume (mean) ([1]; relaxation of the fundus, 1 hour after I.D. administration, administered at 0.16 mg/kg (footnote *)): 154.6 mL

SMILES	melting point [°C]	Maximum change in volume (mean) [2] [mL]	further results
Cn1c(N2CCNCC2)nc2cccnc21	136		
